Measurements from US7935525B2, “Inhibition of ATF2 activity to treat cancer” (Mount Sinai School of Medicine, priority 2001, dated 2011).
No end group written: not given here.

Tests used:
[1] = test system: Adriamycin-resistant MCF7 cell line (MCF7-Adr); experiment: Apoptosis by FACS (hypodiploid fraction); type: cell-based, human; details: peptide-expressing MCF7-Adr; neo controls 3-fold; 36 h
Experimental: [Worded in the source for another cell line; this cell line is reported under the same test.] (§1) Treatment and apoptosis studies of stably transfected melanoma cells. Cells were exposed to UVC at 75 J/m^2 as previously described (Ronai, Z., et al., Oncogene 1998; 16:523-531). SB203580 (1-10 μM) (Calbiochem®, San Diego, Calif.), NCS (50-100 ng/ml) and mitomycin C (MMC) (0.2-1 μM) were used to treat melanoma cells. Flow cytometric analysis was performed on a FACSCalibur™ flow cytometer (Becton Dickinson) using CellQuest™ software as described previously (Nicoletti et al., J. Immunol. Methods 1991; 139:271-279). Cells were pelleted and resuspended in 0.5 ml of hypotonic buffer with 0.1% Triton X-100 containing PI (40 μg/ml) and DNase-free RNase A (1 mg/ml). Cells were incubated at 37° C. for 30 min and analyzed on a FACSCalibur™ flow cytometer (Becton Dickinson). The percentage of cells to the left of the diploid G0/1 peak, characteristic of hypodiploid cells that have lost DNA, was defined as the percentage of apoptotic cells. Analysis was performed with light scatter gating. Surface expression of Fas was determined using anti-Fas-PE antibody (PharMingen® CA) and flow cytometric analysis. Cell surface expression is measured as mean fluorescence intensity (MFI).

[2] = test system: FEMX cells; experiment: Apoptosis by FACS (hypodiploid fraction); type: cell-based, human
Experimental: as §1

[3] = test system: WM1552 early-phase melanoma cell line; experiment: Apoptosis by FACS (hypodiploid fraction); type: cell-based, human; details: peptide-expressing WM1552; UV-C 75 J/m2; 36 h
Experimental: as §1

[4] = test system: MCF7 breast cancer-derived cell line; experiment: Apoptosis by FACS (hypodiploid fraction); type: cell-based, human; details: peptide-expressing MCF7
Experimental: [Worded in the source for another cell line; this cell line is reported under the same test.] as §1

[5] = test system: FAS; experiment: Cell surface FAS receptor by FACS in SW1 cells; type: cell-based, mouse; details: peptide-expressing SW1 vs control
Experimental: Electrophoretic mobility shift assays were performed as described. (Ivanov and Ronada, J Biol Chem 1999; 274(20):14079-89). GST binding assays were performed with GST-peptide II as described (Adler et al., Proc Natl Acad Sci USA 1995; 92 10585-9). SW1 cells expressing control vector or peptide II were subjected to FACS analysis following their incubation with antibodies to the cell surface receptor of FAS as described above.

[6] = test system: JNK; experiment: In vitro phosphorylation of the peptide; type: biochemical
[7] = test system: SW1 cells; experiment: Cell cycle distribution after synchronization and serum stimulation; type: cell-based, mouse; details: 18-24 h after serum stimulation of synchronized cells
[8] = test system: FEMX tumor cells; experiment: Growth of transplanted FEMX tumors in mice; type: in vivo
Experimental: Tumor growth and metastasis evaluation in vivo. Cell lines established in culture to constitutively or inducibly express the peptide were injected into mice subcutaneously (S.C.). LU1205, FEMX and SW-1 cells that expressed control or peptide II were trypsinized, resuspended in PBS and injected SC (1×10^6) into 6-7 week old mice in the lower flank. When the tumor reached the size of about 50 mm^3, 5 μM of SB203580 was injected into four areas of the LU1205 tumors every 4 days during a 2-week period. For FEMX tumors UCN-01 (2.5 mg/kg) was fed by gavage twice a day, three times per week for a total of 2 weeks. Tumor growth was monitored every two days. SW-1 cells expressing peptide II under tet-inducible vector were injected SC (1×10^6). When tumors reached a size of about 50 mm^3, the mice received doxycycline in their drinking water ([…]) for a total of 2-4 weeks. At the end of the experiment, the tumors were excised and weighed. The lungs and other organs were subjected to histopathological examination to detect metastatic lesions.

[9] = test system: ATF2/c-Jun transcriptional activity; experiment: Jun2-Luciferase reporter in SW1 clones; type: cell-based, mouse
Experimental: Transient transfection and transcriptional analysis. Mouse melanoma tumors grown in culture were transfected with control vector or peptide II expressing luciferase or β-galactosidase constructs (Bhoumik et al., Clin. Cancer Res. 2001; 7(2):331-42). Transient transfection of different reporter constructs (0.5 cg) with expression vectors and pCMV-Cgal (0.25 Cg) into 5×10^5 melanoma cells was performed using Lipofectamine™ (Life Technologies-BRL). Transfection of the Jun2-luciferase construct permitted us to monitor activity of ATF2 and c-Jun. Jun2-Luc and TRE-Luc constructs were previously described (van Dam H., et al., EMBO J. 1993; 12:479-487; and van Dam H., et al., EMBO J. 1995; 14:1798-1811). Luciferase activity was determined using the Luciferase assay system (Promega®, Madison, Wis.) and normalized on the basis of β-galactosidase (β-Gal) levels in transfected cells. Proteins were prepared for β-Gal and Luciferase analysis at the selected time points after transfection.

[10] = test system: AP1 complex; experiment: Transcriptional activity mediated from AP1 target sequences; type: cell-based; details: peptide-expressing melanoma cells

decrease in basal levels of ATF2 transcriptional activities ([9]; SW1 clones constitutively expressing peptide): 5 fold
ATF2 transcriptional activities in response to UV-treatment ([9]; SW1 clones, UV): decrease
Substance: peptide II: N-terminal polypeptide fragment of ATF2, amino acid residues 50-100, expressed from pcDNA3 with HA-penetratin tag (EMTLKFGPARNDSVIVADQTPTPTRFLKNCEEVGLFNELASPFENEFKKAS; also: HA-penetratin tag, position not given here; UniProt P15336 50-100, looked up, fragment)
increase in apoptosis following UV-treatment [1]: 8 fold
increase in the degree of UCN-01-elicited apoptosis ([2]; peptide-expressing FEMX vs parent): > 3 fold
apoptotic fraction of UV-treated cells ([2]; peptide-expressing FEMX, UV-C 75 J/m2, 36 h, neo control 13%): 28%
sensitization to UV-induced apoptosis [3]: no longer was able to elicit sensitization
increase in sensitivity to UCN-01 elicited apoptosis [4]: ~2 fold
increase in degree of apoptosis following UV-treatment relative to non-irradiated cells ([4]; neo control 4-fold, 36 h): ~9 fold
effect on the basal level of apoptosis ([4]; no treatment): minimal effect
level of FAS on the cells [5]: greatly increased
phosphorylation of the peptide by JNK [6]: Neither JNK nor p38 was found capable of phosphorylating
number of cells in the S-phase, lower than control cell population [7]: 2 fold
tumor growth ([8]; co-treatment: peptide-expressing FEMX + UCN-01): tumor regression
tumor cell growth ([8]; single agent: UCN-01 by gavage, or peptide expressed in tumor cells): grew much more slowly
transcriptional activities mediated by AP1 target sequences [10]: lower
